In PubChem BioAssay (NCI):
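Where inhibition never reached the appropriate level, the endpoint shown equals the highest concentration tested. Otherwise, values were interpolated linearly from a five-concentration, 48-hour dose response in 96-well plates. GI50 is the concentration that inhibits growth by half. TGI: concentration producing complete growth inhibition.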

Legend:
Test in all cases: NCI anticancer screen, dose series, 48 h
[1] = test system: A498 renal
[2] = test system: LOX IMVI melanoma
[3] = test system: NCI-H460 lung
[4] = test system: RXF 393 renal
[5] = test system: SK-MEL-28 melanoma
[6] = test system: SK-MEL-5 melanoma
[7] = test system: SN12C renal
[8] = test system: UACC-257 melanoma
[9] = test system: UO-31 renal
[10] = test system: HCC-2998 colon

Row | Structure (SMILES) | GI50 [1] | TGI [1] | GI50 [2] | TGI [2] | GI50 [3] | TGI [3] | GI50 [4] | TGI [4] | GI50 [5] | TGI [5] | GI50 [6] | TGI [6] | GI50 [7] | TGI [7] | GI50 [8] | TGI [8] | GI50 [9] | TGI [9] | TGI [10] | GI50 [10]
1 | O=C1OCC(c2ccc(O)c(O)c2)=C1c1cc(O)c(O)c(O)c1 | > 100 µM | > 100 µM | 19.1 µM | 36.8 µM | 35.3 µM | > 100 µM | > 100 µM | > 100 µM | 38.5 µM | > 100 µM | 38.2 µM | > 100 µM | 15.8 µM | 29.6 µM | 93.8 µM | > 100 µM | 63.4 µM | > 100 µM | – | –
2 | C=C1C(=O)O[C@H]2[C@H]1CC/C(COC(=O)OCCCCCOC(=O)OC/C1=C/CC[C@@]3(C)O[C@H]3[C@H]3OC(=O)C(=C)[C@@H]3CC1)=C\CC[C@@]1(C)O[C@@H]21 | 1.5 µM | 3.21 µM | 0.241 µM | 0.654 µM | 1.87 µM | 4.64 µM | 0.155 µM | 0.307 µM | 0.252 µM | 0.842 µM | 1.53 µM | 3.07 µM | – | – | 0.661 µM | 2.31 µM | 0.674 µM | 2.05 µM | – | –
3 | CC(=O)O[C@]1(C(C)=O)CC[C@H]2[C@@H]3C[C@H](C)C4=CC(=O)C=C[C@]4(C)[C@@]3(F)[C@@H](O)C[C@@]21C | – | – | – | > 100 µM | – | > 100 µM | – | > 100 µM | – | > 100 µM | – | > 100 µM | – | – | – | > 100 µM | – | 98.9 µM | > 100 µM | –
4 | CCN(CC)c1ccc(NC(C(=O)c2ccccc2)c2ccccc2)cc1 (configuration not stated) | 2.71 µM | 10.1 µM | 1.57 µM | 3 µM | 3.08 µM | 11.4 µM | 1.7 µM | 3.47 µM | 1.81 µM | 3.6 µM | 2 µM | 4.66 µM | – | – | 4.86 µM | 22.1 µM | 1.9 µM | 4.18 µM | 8.62 µM | 2.81 µM
5 | CCCCCCC1CCC2CCCC(C)N12 (configuration not stated) | – | – | – | – | – | 59.8 µM | – | – | – | > 100 µM | – | > 100 µM | – | > 100 µM | – | > 100 µM | – | > 100 µM | 45.6 µM | –
6 | COc1ccc2c(c1)C(=O)c1c-2c(NCCCN(C)C)nc2ccccc12 | 11.3 µM | 23.8 µM | 1.44 µM | 2.82 µM | 1.33 µM | 2.76 µM | – | – | 0.524 µM | 1.94 µM | 3.87 µM | 14.4 µM | 2.26 µM | 6.84 µM | 11.8 µM | 25.4 µM | 4.91 µM | 18.4 µM | 11.7 µM | 2.48 µM
7 | CCCCOC1CC2(c3ccc(OC)cc3)C(=O)c3ccccc3N2O1 (configuration not stated) | – | > 10 µM | – | > 10 µM | – | > 10 µM | – | 50 µM | – | – | – | 88.4 µM | – | > 10 µM | – | 70.1 µM | – | > 10 µM | – | –
8 | COc1ccc(-c2cc3c4c(nc5ccccc5c4c2)CC(c2cc(OC)c(OC)c(OC)c2)O3)cc1 (configuration not stated) | 3.39 µM | 13.4 µM | 1.92 µM | 6.81 µM | 1.46 µM | 4.79 µM | 1.92 µM | 4.65 µM | 2.36 µM | 6.62 µM | 2.67 µM | 8.27 µM | 2.75 µM | > 100 µM | 3.93 µM | > 100 µM | – | – | > 100 µM | 4.32 µM
9 | OCC(O)CC[CH2][Sn]([c]1ccccc1)([c]1ccccc1)[c]1ccccc1 (configuration not stated) | – | – | 14.9 µM | 30.7 µM | 15.4 µM | 31.6 µM | 4.32 µM | 19.7 µM | – | – | 15.3 µM | 29.1 µM | 15.1 µM | 30.8 µM | 18.4 µM | 35.8 µM | 14.8 µM | 28.4 µM | 34.5 µM | 18.2 µM
10 | CCOC(C)OCC#CCCBr (configuration not stated) | – | – | – | > 100 µM | – | > 100 µM | – | > 100 µM | – | – | – | > 100 µM | – | > 100 µM | – | > 100 µM | – | > 100 µM | > 100 µM | –
11 | CC(C)C1CN1CC(O)Cn1ccnc1[N+](=O)[O-] (configuration not stated) | – | > 100 µM | – | – | – | > 100 µM | – | – | – | > 100 µM | – | > 100 µM | – | > 100 µM | – | > 100 µM | – | > 100 µM | > 100 µM | –
12 | COc1ccc(C2C3=C(NC(=O)C2C#N)c2ccc4ccccc4c2OCC3)cc1 (configuration not stated) | 10.6 µM | 64.6 µM | 18.6 µM | 37.5 µM | 66.2 µM | > 100 µM | 16.3 µM | 48.9 µM | 42.3 µM | > 100 µM | > 100 µM | > 100 µM | 23.9 µM | 56.5 µM | 36.5 µM | 82.8 µM | 64.1 µM | > 100 µM | – | –
13 | COc1ccc(-c2cc3cccc(OC)c3c(=O)o2)cc1OC | 81.7 µM | > 100 µM | 11.5 µM | > 100 µM | 31.1 µM | > 100 µM | 32 µM | > 100 µM | 44.4 µM | > 100 µM | 4.14 µM | 40.8 µM | 19.7 µM | > 100 µM | 92.8 µM | > 100 µM | 95.4 µM | > 100 µM | – | –
14 | COc1cc(OC)cc(N2CCC(c3c(N)nc(N)nc3Cl)CC2)c1 | – | – | – | > 100 µM | – | > 100 µM | – | > 100 µM | – | > 100 µM | – | 97.7 µM | – | > 100 µM | – | > 100 µM | – | > 100 µM | > 100 µM | –
15 | O=C1c2ccn(CCCCN3CCOCC3)c2C(=O)c2c1c(O)c1ccccc1c2O | 19.3 µM | > 100 µM | 3.58 µM | 23.1 µM | 12.3 µM | 28.4 µM | 2.2 µM | 6.93 µM | 25.8 µM | > 100 µM | – | – | 11.4 µM | 24 µM | 8.43 µM | 27.4 µM | 27.5 µM | > 100 µM | – | –
16 | COc1ccc(CC(=O)c2cc(OC)c(OC)cc2C)cc1OC | – | > 100 µM | – | – | – | > 100 µM | – | – | – | > 100 µM | – | > 100 µM | – | > 100 µM | – | 75.8 µM | – | > 100 µM | > 100 µM | –
